Experimental data as given in patent US8957087B2, “Heterocyclic substituted acardite derivate and application thereof” (Jiangsu Provincial Institute of Materia Medica Co., Ltd., priority 2009, dated 2015).

Experiments:
[1] = system: renal carcinoma cell line GCR-1 transplanted tumor; format: in vivo, BALB/cA nude mice; conditions: BALB/cA nude mice; 60 mg/kg, 6 times every week for 3 weeks; Sorafenib oral 60 mg/kg
Description: 11. Tumor inhibition rate of medicines on renal carcinoma cell line GCR-1 transplanted tumor model in nude mice
(§1) [Test animals] female BALB/cA nude mice, 35-40 days old, with weight of 18-22g. There were 12 mice in the negative conrol group and 6 mice in the treatment group.
[Test method] […] The dosage of the medicine was 60 mg/kg, 6 times every week for 3 weeks. […] Equal amount of normal saline was administrated in the negative control group. Observe for one week after administration.

[2] = system: human lung cancer A549 transplantation tumor; format: in vivo; conditions: BALB/cA nude mice; 60 mg/kg, 6 times every week for 3 weeks; Sorafenib oral 60 mg/kg
Description: 9. Tumor inhibition rate of tested compounds on human lung cancer A549 cell transplantation model in nude mice
as §1
(§2) The dosage of the compound was 60 mg/kg, 6 times every week for 3 weeks. […] Equal amount of normal saline was administrated in the negative control group. Observe for one week after administration.

[3] = system: human umbilical vein endothelial cell HUVEC; experiment: Lumen formation ability of HUVEC (Matrigel method); format: cell-based; conditions: Final concentration 1 x 1.0*10^(−5) mol/L
Text: 8. Inhibition effects of compounds on the lumen formation ability of human umbilical vein endothelial cell HUVEC
[Experimental principles] The human umbilical vein endothelial cells have ability of spontaneously forming blood lumen on Matrigel, which can be used to simulate the process of angiogenesis in vivo. We used Matrigel method to investigate the effects of the compound on the lumen formation ability of human umbilical vein endothelial cell HUVEC.
[Test materials] HUVEC (taking generation 3 to 5 cells for experiments after obtained from primary separation and cultured at 37 under the conditions of 5% CO2), Matrigel, cell culture medium M199.
(§3) [Tested compound] Compounds 1-38
(§4) [Positive control medicine] Sorafenib, compounds A′, B′, C′ with no substituent or only amino formyl in A ring
(§5) The inhibition rate is calculated as follows: […]

Raf-1(truncated) = experiment: Raf-1 inhibitor screening by chemoluminescence method; format: biochemical; conditions: Final concentration 1 x 1.0*10^−5 mol/ml
Text: 1. Inhibitory activity of the compound of the present invention on raf kinase
Raf-1 inhibitor screening by chemoluminescence method
Westernblot electrophoresis apparatus Rotaryshaker
Raf-1(truncated), Magnesium/ATP Cocktail, MEK1 unactive

mice S180 sarcoma = experiment: Experimental therapeutic action on S180 sarcoma mice; conditions: mice S180 sarcoma, 60 mg/kg orally for 9 days
Description: Experimental therapeutic action of the compound in the present invention on S180 sarcoma mice
18-25 g female ICR mice and well grown 7-11 day old mice sarcoma S180 tumor seeds were selected, and the seeds were inoculated into the subcutaneous at the right axillary. After inoculated 24 hours, these mice were randomly divided into cages and orally administrated 60 mg/kg for 9 days. On 10 day, the animals were killed and weighed, and the tumor weights were weighed to calculate average tumor weight in each group, followed by calculating the tumor inhibition rate according to the following formula and T test.

[4] = system: human lung cancer cell strain A549; experiment: MTT assay, inhibition of growth of human lung cancer cell strain A549; format: cell-based
Description: 4. Using 3-(4,5-dimethylthiazol-2-yl)-2,5-diphenyl tetrazolium bromide assay (MTT) to detect the inhibition effects on the growth of human lung cancer cell strain A549
[Test materials] MTT working solution, F12 medium containing 10% FBS, continuous injectors
as §3, §4
The inhibition rate is calculated as follows:
(§6) Relative OD value of conrol well=OD value of control well−OD value of blank well
(§7) Relative OD value of drug well=OD value of drug well−OD value of blank well

[5] = system: Human colon cancer HT-29 transplantable tumor; experiment: Human colon cancer HT-29 transplantable tumor in nude mice; conditions: HT-29 in nude mice, 60 mg/kg ig 9 times
Description: Experimental therapeutic action of the compound in the present invention on Human colon cancer HT-29 transplantable tumor in nude mice.
Take eugenic tumor tissues and cut into about 1.5 mm^3, and then incoculate subcutaneously at the right armpit of nude mice under the sterile conditions. The diameter of the transplantable tumor in nude mice was determined with a vernier caliper, and the animals were divided into groups after the tumors were grown to 100-300 mm^3. Using the method of measuring the tumor diameter, dynamically observe the antitumor effects of tested materials. The diameter of the tumor was determined three times every week and the mouse weight was weighed at the same time. […] The solvent was intragastrically administrated as the control for continuous 9 times. Equal amount of control was administrated in the negative control group.
Tumor volume (TV) is calculated as: TV=½×a×b^2, wherein a and b respectively represent length and width.
Relative tumor volume (RTV) is calculated as: RTV=TVt/TV0, wherein TV0 is the tumor volume when administrated according to different cages and TVt is the tumor volume measured each time.
Relative tumor reproduction rate T/C (%) is calculated as follows:
TRTV: RTV in the treatment group; CRTV: RTV in the negative control group.
The test results used relative tumor reproduction rate T/C (%) as evaluating indicator of anti-tumor activity.

[6] = system: human umbilical vein endothelial cell HUVEC; experiment: Growth of human umbilical vein endothelial cell HUVEC by CCK8 method; format: cell-based; conditions: Final concentration 1 x 1.0*10^(−5) mol/L
Text: 7. Effects of tested compounds on the growth of human umbilical vein endothelial cell HUVEC cell by CCK8 method
[Test materials] CCK8, human umbilical vein endothelial cell HUVEC cell, 1640 medium containing 10% FBS
(§8) [Tested compound] Compounds 1-38 to be tested
as §4, §6, §7

lung cancer cell A549 = experiment: Effects on the adhesive ability of lung cancer cell A549; format: cell-based, human; conditions: Final concentration 1 x 1.0*10^(−5) mol/L
Description: 6. Effects of tested compounds on the adhesive ability of lung cancer cell A549
[Test materials] gelatin, CCK8, poly-lysine (PLL), A549 cell stains, 1640 medium containing 10% FBS
as §8, §4, §5
Dosing dosing cells without cell group (gelatin adhesive OD/PLL adhesion OD)−Dosing cell group (gelatin adhesive OD/PLL adhesion OD value)
Dosing dosing cells without cell group (gelatin adhesive OD/PLL adhesion OD value)

[7] = system: human liver cancer cell bel-7402 transplantation tumor; format: in vivo; conditions: BALB/cA nude mice; 60 mg/kg, 6 times every week for 3 weeks; Sorafenib oral 60 mg/kg
Description: 10. Tumor inhibition rate of tested compounds on human liver cancer cell bel-7402 transplantation tumor model in nude mice
as §1, §2

[8] = system: human high-metastic lung cancer cell 95D; experiment: Inhibition of human high-metastic lung cancer cell 95D migration (Boyden Chamber Transwell); format: cell-based; conditions: Final concentration 1 x 1.0*10^(−5) mol/L
Description: 5 Inhibition effects of compounds on human high-metastic lung cancer cell 95D migration
[Test materials] Boyden Chamber Transwell chamber (with pore size of 8 μm), human high-metastic lung cancer cell 95D cell strain, 1640 medium containing 10% FBS, 1640 medium containing no serum
as §3, §4, §5

Structure (SMILES)	Relative tumor reproduction rate T/C (%) on human renal carcinoma GCR-1 cell transplanted tumor model in nude mice [1]	Relative tumor reproduction rate T/C (%) on human lung cancer A549 transplantation tumor in nude mice [2]	Inhibition rate, lumen formation ability of HUVEC [3]	Inhibition rate % on raf kinase (Raf-1(truncated))	Tumor growth inhibition rate (%) (mice S180 sarcoma)	Inhibition rate, growth of human lung cancer cell A549 [4]	Relative tumor reproduction rate T/C (%) [5]	Inhibition rate, growth of HUVEC cell [6]	Inhibition rate, adhesion ability of human lung cancer cell A549 (lung cancer cell A549)	Relative tumor reproduction rate T/C (%) on human liver cancer cell bel-7402 transplantation tumor model in nude mice [7]	Inhibition rate, 95D cell strain migration [8]
O=C(Nc1ccc(Oc2ncnc3cc(F)ccc23)cc1)Nc1ccc(Cl)c(C(F)(F)F)c1 [Compound 19, N-(4-chloro-3-(trifluoromethyl)phenyl)-N′-(4-(4-(7 fluoroquinazolinyl)oxy)phenyl)urea]	13.2%	7.7%	89.22%	93.5%	50.8%	91.23%	39.4%	5.23%	90.28%	16.3%	90.21%
O=C(Nc1ccc(Oc2ncnc3cc(F)ccc23)cc1)Nc1ccc(F)c(C(F)(F)F)c1 [Compound 20, N-(4-fluoro-3-(trifluoromethyl)phenyl)-N′-(4-(4-(7 fluoroquinazolinyl)oxy)phenyl)urea]	13.1%	12.1%	88.54%	87.7%	54.6%	88.32%	40.1%	7.32%	95.31%	17.2%	89.12%
O=C(Nc1ccc(Oc2ncnc3cc(F)ccc23)cc1)Nc1ccc(Br)c(C(F)(F)F)c1 [Compound 21, N-(4-bromo-3-(trifluoromethyl)phenyl)-N′-(4-(4-(7 fluoroquinazolinyl)oxy)phenyl)urea]	7.8%	13.7%	89.47%	98.9%	59.7%	89.21%	38.7%	11.21%	90.22%	16.4%	88.76%
COc1ncncc1Oc1ccc(NC(=O)Nc2ccc(Cl)c(C(F)(F)F)c2)cc1 [Compound 22, N-(4-chloro-3-(trifluoromethyl)phenyl)-N′-(4-(5-(4-methoxypyrimidinyl)oxy)phenyl)urea]	8.1%	15.3%	86.72%	88.1%	52.1%	82.49%	41.2%	12.49%	72.44%	15.3%	88.77%
